Entries after “also recorded” stand apart in the source; their conditions may differ.
What was measured:
Assay type in all cases: cell-based
[1] = target: T1, human potassium channel Kir2.1 (Homo sapiens, UniProt P63252); experiment: Gramicidin-perforated current-clamp measurement of membrane potential of clone #30; details: 100 μM barium
T1 construct: expressed in transfected cells; host or cells: HEK293 stably expressing human T-type α1H; clone #30 (HEK293-TChH-IRK2.1, KCTC 10780BP)
T1 sequence (P63252 1-427): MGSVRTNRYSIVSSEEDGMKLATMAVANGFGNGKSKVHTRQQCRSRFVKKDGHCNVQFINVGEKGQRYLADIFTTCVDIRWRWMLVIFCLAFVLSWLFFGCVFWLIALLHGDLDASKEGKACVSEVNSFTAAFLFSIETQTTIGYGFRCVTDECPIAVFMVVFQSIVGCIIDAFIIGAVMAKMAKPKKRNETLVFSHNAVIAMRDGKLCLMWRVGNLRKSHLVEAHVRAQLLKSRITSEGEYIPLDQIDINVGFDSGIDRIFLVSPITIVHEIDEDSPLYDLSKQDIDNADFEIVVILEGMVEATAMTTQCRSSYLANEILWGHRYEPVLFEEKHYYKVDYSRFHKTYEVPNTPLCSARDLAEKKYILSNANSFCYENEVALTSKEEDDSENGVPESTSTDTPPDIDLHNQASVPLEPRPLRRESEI
Procedure: (§1) The procedures and conditions of the experiment were as follows. The T-type calcium current and inwardly rectifying potassium current (referred as “IRK current” hereinafter) were recorded by the whole-cell ruptured patch-clamp method (Hamil et al., Pflugers Arch., 391:85-100, 198; Jeong and Ikeda, Neuron, 21:1201-1212, 1998), a voltage clamp technique, to confirm which clone could best express the human T-type α1H channel and human potassium channel Kir2.1. In the meantime, the resting membrane potential of the clones that were confirmed by the measurement of calcium and potassium currents was monitored by the gramicidin-perforated current-clamp method (Akaike, Prog. Biophys. Mol. Biol., 65:251-264, 1997).
(§2) The patch electrode used in the measurement above was prepared with a borosilicate glass tube (Corning, USA) by a P-97 flaming brown micro-pipette puller (Sutter Instrument, USA). […] The cell capacitance and series resistance were adjusted to more than 80% by using Axopatch-1D (Axon Instruments, USA) or EPC-10 amplifier (HEKA, Germany). S4 (prepared by Dr. Stephen R. Ikeda, USA) using ITC18 (Instrutech, USA) or Pulse (HEKA, Germany) was used for the generation and data collection of the voltage-stimulating protocol. […] The results were recorded in a computer. […]
(§3) The T-type α1H channel current, activated at −50 mV and showing maximum activity at −30 mV, was recorded as well. […]

[2] = target: T1, human potassium channel Kir2.1; experiment: Whole-cell ruptured patch-clamp recording of inwardly rectifying potassium (IRK) current in clone #30; design: dose or concentration left out as unconfirmed; details: Ba^2+, voltage clamp
Procedure: as §1, §2, §3

[3] = target: T2, T-type α1H channel (Homo sapiens, UniProt O95180); experiment: Fluo-3 fluorescent calcium imaging (cooled CCD) in clone #30 cells (HEK293-TChH-IRK2.1); details: for increase of intracellular calcium signal (fluorescent image) upon KCl depolarization: 60 mM KCl
T2 construct: expressed in transfected cells; clone #30, KCTC 10780BP
Procedure: (§4) Intracellular calcium concentrations were measured by the ratio fluorescence system (Ratiomaster, Photon Technology International, USA) installed on a fluorescent microscope (Nikon TE2000, Japan) as well as CoolSNAP CCD imaging system (Loafer Scientific, USA). Particularly, Fura-2/AM or Fluo-3 (Molecular Probes, USA) was added up to 5 μM to cells cultured on a cover slip, followed by loading at room temperature for 30-60 minutes with the light blocked. After the loading, the cells were washed twice with an extracellular flushing medium, and then the cover slip, on which the cells were stuck, was put on a perfusion chamber on the microscope. In the case of Fura-2/AM, the changes in the intracellular calcium (Ca^2+) concentration were measured using a photomultiplier (PM) tube in the ratio of fluorescence (F340/F380 t) emitted at 510 nm when 340 nm and 380 nm were used for excitation respectively. When Fluo-3 was used, fluorescent ratios were not measured but the fluorescent image emitted at 525 nm was recorded and captured by a cooled CCD, which was then analyzed by the Metaimage 6.1 program (Imaging Corporation, USA).
To measure fluorescent calcium image, Fluo-3 was loaded to clone #30 cells.

[4] = target: T2, T-type α1H channel; experiment: Fura-2/AM ratio fluorescence (F340/F380) calcium assay in single cell of clone #30 (HEK293-TChH-IRK2.1) depolarized by KCl; details: depolarization by 60 mM KCl, pre-treatment with mibefradil (3 μM elsewhere in the source)
Procedure: as §4

T2 sequence (O95180 whole entry): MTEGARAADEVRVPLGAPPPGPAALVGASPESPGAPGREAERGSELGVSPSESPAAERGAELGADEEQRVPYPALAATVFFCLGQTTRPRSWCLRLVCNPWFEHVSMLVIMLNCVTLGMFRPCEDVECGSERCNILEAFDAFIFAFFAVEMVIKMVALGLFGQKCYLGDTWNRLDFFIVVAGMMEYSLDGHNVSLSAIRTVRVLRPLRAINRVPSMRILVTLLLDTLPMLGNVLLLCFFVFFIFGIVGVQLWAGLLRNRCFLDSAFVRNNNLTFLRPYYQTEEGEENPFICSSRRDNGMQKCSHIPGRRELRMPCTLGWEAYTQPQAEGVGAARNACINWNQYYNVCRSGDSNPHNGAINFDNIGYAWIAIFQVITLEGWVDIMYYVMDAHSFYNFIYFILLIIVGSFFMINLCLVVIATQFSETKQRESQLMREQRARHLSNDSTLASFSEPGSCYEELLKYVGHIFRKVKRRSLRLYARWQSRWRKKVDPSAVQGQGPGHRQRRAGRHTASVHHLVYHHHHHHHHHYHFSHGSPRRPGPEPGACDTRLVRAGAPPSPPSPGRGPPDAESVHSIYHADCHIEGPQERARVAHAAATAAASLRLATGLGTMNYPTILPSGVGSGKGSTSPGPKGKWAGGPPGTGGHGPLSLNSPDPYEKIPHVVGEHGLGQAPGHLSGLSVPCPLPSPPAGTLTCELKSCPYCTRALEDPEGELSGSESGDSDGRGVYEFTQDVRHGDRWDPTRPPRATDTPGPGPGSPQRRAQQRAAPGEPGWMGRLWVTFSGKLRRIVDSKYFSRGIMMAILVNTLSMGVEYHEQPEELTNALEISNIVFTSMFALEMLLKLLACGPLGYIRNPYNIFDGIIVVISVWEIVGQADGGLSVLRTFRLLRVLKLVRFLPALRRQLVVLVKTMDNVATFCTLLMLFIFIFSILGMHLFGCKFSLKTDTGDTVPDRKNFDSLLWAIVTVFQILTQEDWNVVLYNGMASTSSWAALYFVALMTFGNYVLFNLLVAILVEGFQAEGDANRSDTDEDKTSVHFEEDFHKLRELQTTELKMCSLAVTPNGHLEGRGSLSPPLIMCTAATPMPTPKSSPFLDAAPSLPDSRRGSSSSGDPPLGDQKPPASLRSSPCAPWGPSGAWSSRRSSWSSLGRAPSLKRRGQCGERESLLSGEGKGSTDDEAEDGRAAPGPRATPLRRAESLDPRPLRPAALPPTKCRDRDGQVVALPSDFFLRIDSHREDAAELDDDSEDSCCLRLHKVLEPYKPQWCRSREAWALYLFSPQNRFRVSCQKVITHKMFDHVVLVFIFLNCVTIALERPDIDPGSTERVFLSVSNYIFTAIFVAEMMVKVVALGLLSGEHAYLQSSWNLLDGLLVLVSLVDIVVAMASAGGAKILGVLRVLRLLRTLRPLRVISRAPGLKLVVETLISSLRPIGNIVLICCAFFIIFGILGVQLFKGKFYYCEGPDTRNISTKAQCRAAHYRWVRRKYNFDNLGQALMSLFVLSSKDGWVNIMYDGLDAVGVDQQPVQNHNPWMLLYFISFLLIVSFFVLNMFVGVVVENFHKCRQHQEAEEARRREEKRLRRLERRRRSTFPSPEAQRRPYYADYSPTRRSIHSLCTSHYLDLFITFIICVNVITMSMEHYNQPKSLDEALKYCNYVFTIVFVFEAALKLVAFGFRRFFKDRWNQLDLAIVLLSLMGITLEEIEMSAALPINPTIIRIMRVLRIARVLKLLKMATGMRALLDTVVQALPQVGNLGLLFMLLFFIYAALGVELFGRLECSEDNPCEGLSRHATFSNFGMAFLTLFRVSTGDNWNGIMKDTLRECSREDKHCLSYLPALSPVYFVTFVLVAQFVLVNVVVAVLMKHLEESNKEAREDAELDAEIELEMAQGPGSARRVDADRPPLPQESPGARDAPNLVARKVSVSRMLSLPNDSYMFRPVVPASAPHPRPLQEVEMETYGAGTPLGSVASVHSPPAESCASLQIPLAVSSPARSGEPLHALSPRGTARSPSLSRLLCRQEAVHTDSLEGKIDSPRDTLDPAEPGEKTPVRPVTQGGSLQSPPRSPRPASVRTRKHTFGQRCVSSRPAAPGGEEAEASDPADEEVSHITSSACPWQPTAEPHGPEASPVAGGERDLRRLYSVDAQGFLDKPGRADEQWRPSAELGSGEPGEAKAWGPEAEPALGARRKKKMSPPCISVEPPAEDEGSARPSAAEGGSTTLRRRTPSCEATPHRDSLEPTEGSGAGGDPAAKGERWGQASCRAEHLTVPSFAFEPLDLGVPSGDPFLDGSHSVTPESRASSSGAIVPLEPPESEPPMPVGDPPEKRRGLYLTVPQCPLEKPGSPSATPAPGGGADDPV

## [Ba+2] [Ba^2+, barium]
[1]
  membrane potential response: Ca^2+ spikes or action potentials were induced with depolarization
[2]
  IRK current: blocked

## [Ni+2] [Ni^2+, nickel (Ni^2+)]
[3]; pre-treatment with 100 μM nickel
  increase of intracellular calcium signal (fluorescent image) upon KCl depolarization: completely inhibited
[3]; pre-treatment with 100 mM Ni^2+
  increase of intracellular calcium signal (fluorescent image) upon KCl depolarization: completely inhibited

## COCC(=O)O[C@]1(CCN(C)CCCc2nc3ccccc3[nH]2)CCc2cc(F)ccc2[C@@H]1C(C)C [mibefradil]
[4]
  increase in intracellular calcium (F340/F380 ratio) by influx through T-type α1H channels: completely blocked; also recorded: completely inhibited
[3]; pre-treatment with mibefradil (3 μM elsewhere in the source)
  increase of intracellular calcium signal (fluorescent image) upon KCl depolarization: completely inhibited; also recorded: completely blocked
[3]; no KCl, mibefradil (3 μM elsewhere in the source)
  intracellular calcium level at non-depolarized resting phase (number of red cells): reduced remarkably; also recorded: remarkably reduced

From US7674596B2 (priority 2005, dated 2010)
